Read-outs that look alike come from different tables or passages of the source.
Columns and labels:
hCB2 [1] = biological target: T1, hCB2 (Homo sapiens, UniProt P34972); test: In vitro binding assay using hCB2-CHO membranes, [3H]-CP-55,940 displacement (Protocol IV); set-up: expressed in transfected cells; host or cells: CHO (hCB2-CHO, generated in-house); settings: hCB2-CHO membranes, [3H]-CP-55,940 displacement; for inhibition at 0.3 µM: 1 h, read-out: % Displacement Protocol IV
Procedure, shortened: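 Compounds were tested at a single 300 nM final concentration for displacing 0.75 nM [3H]-CP-55,940 from hCB2-CHO membranes (1 h, 30 °C, 50 mM Tris pH 7.4, 5 mM MgCl2, 1 mM EDTA, 0.1% BSA). Filter-bound radioactivity was counted, with 0.5 μM unlabelled CP-55,940 for nonspecific binding; results are % displacement.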

hCB2 [2] = biological target: T1, hCB2; test: Agonism of CB2 receptors expressed in CHO cells, forskolin cAMP assay (Protocol IX.2); type: cell-based; set-up: expressed in transfected cells; host or cells: CHO (h-CB2/CHO, G418-selected); settings: cAMP
Procedure, shortened: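 CHO cells expressing h-CB2 were treated with compound in Krebs buffer with 0.1% FAF BSA and 1 mM IBMX, plus 10 uM forskolin, for 30 minutes at room temperature. cAMP in lysates was measured by chemiluminescence. EC50 was derived by nonlinear regression of dose–response curves, with CP 55,940 at 10 μM as reference for CB2.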

hCB2 [3] = biological target: T1, hCB2; test: Antagonism of CB2 receptors expressed in CHO cells, cAMP assay against CP 55,940 (Protocol IX.1); type: cell-based; set-up: expressed in transfected cells; host or cells: CHO (h-CB2/CHO, G418-selected); settings: h-CB2/CHO cells, vs 10 nM CP 55,940; for inhibition at 10 µM: CHO
Method: (§1) IX. Assay for Determining Agonist and Antagonist Activity to CB1 and CB2 Receptors
1. Antagonism of CB1/CB2 Receptors Expressed in CHO Cells.
h-CB1/CHO or h-CB2/CHO cells were grown in HAM's F12 DMEM medium (Sigma) with 10% FBS (Hyclone), 1% penicillin-streptomycin solution and 400 μg/ml of G418 (Sigma). 5000 cells were seeded per well in a 96 well plate and incubated for 24 hours at 37° C. in 5% CO2. On the day of assay, cells were washed with warm Krebs buffer containing 0.1% fatty acid free (FAF) BSA (Sigma) and re-suspended in the same buffer containing 1 mM IBMX. Test antagonist or reference compound (AM 251 (1-(2,4-dichlorophenyl)-5-(4-iodophenyl)-4-methyl-N-(1-piperidyl)pyrazole-3-carboxamide) for CB1 and SR144528 for CB2) diluted in FAFBSA+IBMX+Krebs buffer was added to the cells and incubated for 10 minutes at room temperature. CP 55,940 (30 nM final concentration for CB1 testing and 10 nM of the same for CB2 testing) was added to cells followed by forskolin (10 μM final concentration) and incubated for 30 minutes at room temperature. At the end of incubation, cells were lysed using lysis reagent from the cAMP estimation kit and cAMP was quantitated by the chemiluminescence method described in the manufacturer's instructions (DiscoveRX). EC50 values were calculated from dose response curves by nonlinear regression analysis using PRISM software.

hCB1 [4] = biological target: T2, hCB1 (Homo sapiens, UniProt P21554); test: Agonism of CB1 receptors expressed in CHO cells, forskolin cAMP assay (Protocol IX.2); type: cell-based; set-up: expressed in transfected cells; host or cells: CHO (h-CB1/CHO, G418-selected); settings: for activation at 10 µM: CHO
Method: as §1
2. Agonism of CB1/CB2 Receptors Expressed in CHO Cells
h-CB1/CHO or h-CB2/CHO cells were grown in HAM's F12 DMEM medium (Sigma) with 10% FBS (Hyclone), 1% penicillin-streptomycin solution and 400 μg/ml of G418 (Sigma). 5000 cells were seeded per well in a 96 well plate and incubated for 24 hours at 37° C. in 5% CO2. On the day of assay, cells were washed with warm Krebs Buffer containing 0.1% fatty acid free (FAF) BSA (Sigma) and re-suspended in the same buffer containing 1 mM IBMX. […] At the end of incubation, cells were lysed using lysis reagent from the cAMP estimation kit and cAMP was quantitated by chemiluminescence method described in the manufacturer's instructions (DiscoveRX). EC50 values were calculated from dose response curves by nonlinear regression analysis using PRISM software.

hCB1 [5] = biological target: T2, hCB1; test: In vitro binding assay using hCB1-CHO membranes, [3H]-CP-55,940 displacement (Protocol II); set-up: expressed in transfected cells; host or cells: CHO (hCB1-CHO, generated in-house)
Procedure, shortened: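 Incubated 1 h at 37° C, stopped by rapid vacuum filtration on PEI-precoated GF/B filters, bound radioactivity counted by liquid scintillation.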

hCB1 [6] = biological target: T2, hCB1; test: Antagonism of CB1 receptors expressed in CHO cells, cAMP assay against CP 55,940 (Protocol IX.1); type: cell-based; set-up: expressed in transfected cells; host or cells: CHO (h-CB1/CHO, G418-selected); settings: for inhibition at 10 µM: read-out: hCB1 Antagonism
CB1 [7] = biological target: T3, CB1 (Rattus norvegicus, UniProt P20272); test: GTPγS binding assay, CB1 functional assay in rat cerebellar membrane (Protocol VIII); type: biochemical; set-up: 10 μg rat cerebellum membrane; from tissue; host or cells: rat cerebellum membrane, prepared in-house; settings: for activation at 0.3 µM: 1 h, GTPγS binding over basal, rat cerebellar membrane, tested at 300 nM, read-out: Per Se % Stimulation; for inhibition at 0.3 µM: GTPγS binding, tested at 300 nM in presence of 1 μM WIN 55,212-2, read-out: % Inhibition of WIN-55212-2 induced stimulation
Procedure, shortened: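 Rat cerebellar membranes (10 μg) incubated 1 h at 30 °C with 0.2 nM [35S]GTPγS, 50 μM GDP, and compound at 1 μM or 300 nM, alone or with 1 μM WIN 55,212-2, in Tris/MgCl2/EGTA/NaCl pH 7.4. Filter-bound radioactivity counted; percent stimulation calculated against basal specific binding (nonspecific defined by 10 μM GTPγS).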

CB2 receptor = test: Rat CB2 receptor binding using spleen membrane, [3H]CP55,940 displacement (Protocol III)
Method: III. In Vitro Protocol for Rat CB2 Receptor Binding Using Spleen Membrane
In this assay, [^3H]CP55,940 was used to bind the CB2 receptor present in a rat spleen membrane preparation which can be displaced by unlabeled ligands having affinity to the CB2 receptor.
The assay was performed according to the modified method of Rinaldi-Carmona et al., 1998 (JPET 284: 644-650). The total reaction mixture ([…]) contained Tris-BSA buffer (50 mM Tris, pH 7.4 with 1.5% BSA) or unlabeled SR144528 (N-[(1S)-endo-1,3,3-trimethyl bicyclo[2.2.1]heptan-2-yl]-5-(4-chloro-3-methylphenyl)-1-(4-methyl-benzyl)-pyrazole-3-carboxamide]) ([…]) or test samples (300 nM), [^3H]CP55,940 (1 nM) and […] of rat […] membrane. The non-specific binding was defined by […] of SR144528. The assay mixture was incubated at 37° C. for 1 hour. The reaction was then stopped by rapid filtration under vacuum using a Whatman GF/B-96 micro filter plate. A scintillation cocktail was added and radioactive counts were measured using a Topcount beta scintillation counter.
The standard and test sample dilutions were made in an assay buffer containing either ethanol or DMSO at a final concentration of 1%.
The percent (%) displacement by a test ligand was calculated by comparing the specific bound values.

CB1 [8] = biological target: T3, CB1; test: Rat CB1 receptor binding using brain membrane, [3H]SR141716A displacement (Protocol I); set-up: CB1 receptor present in a rat brain membrane preparation; from tissue; host or cells: rat brain membrane; inhibition: dose or concentration left out as unconfirmed; settings: 1 h
neuropathic hyperalgesia = test: Neuropathic hyperalgesia model, partial sciatic nerve ligation (Seltzer's model, Protocol V); type: in vivo; settings: rat, 1 mg/kg I.P., paw pressure, 0.5 and 1 hour postdose
Method: V. Neuropathic Hyperalgesia Model—Partial Sciatic Nerve Ligation (Seltzer's Model)
This protocol was performed with the compound of Example 294 at 0.01, 0.1, 0.3, and 1 mg/kg (I.P.), and gabapentin at 100 mg/kg (I.P.) to evaluate the ability of the compound of Example 294 in reducing neuropathic hyperalgesia. The Seltzer method is also generally described in Seltzer et al., Pain 1990, 43:205-18. • 1. Rats were anesthetised using ketamine/xylazine (40/5 mg/kg/ml, i.p.). After induction of anaesthesia, the left thigh was shaved and cleaned. • 2. The left sciatic nerve was exposed at mid thigh level through a small incision. • 3. The nerve was cleared from adhering muscle tissue. • 4. One half of the nerve thickness was tightly ligated just after the bifurcation of common sciatic nerve using 7.0 silk sutures. • 5. The wound was closed with muscle and skin sutures and povidone was applied. • 6. […] Paw withdrawal thresholds were recorded for both the ipsilateral and the contralateral hind paws before (predose) and 0.5 and 1 hour after drug or vehicle administration (postdose). • 9. […]
The threshold withdrawal latency (naïve, predose & postdose) values are represented as mean±SEM. […] The percent reversal of neuropathic mechanical hyperalgesia was calculated from withdrawal threshold latency values according to the following formula: […]

[9] = at 10 uM, h-CB1/CHO cells, cAMP
[10] = at 10 uM, h-CB1/CHO cells, cAMP, vs 30 nM CP 55,940
[11] = hCB2 Agonism IC50, h-CB2/CHO cells

T2 sequence (P21554 whole entry): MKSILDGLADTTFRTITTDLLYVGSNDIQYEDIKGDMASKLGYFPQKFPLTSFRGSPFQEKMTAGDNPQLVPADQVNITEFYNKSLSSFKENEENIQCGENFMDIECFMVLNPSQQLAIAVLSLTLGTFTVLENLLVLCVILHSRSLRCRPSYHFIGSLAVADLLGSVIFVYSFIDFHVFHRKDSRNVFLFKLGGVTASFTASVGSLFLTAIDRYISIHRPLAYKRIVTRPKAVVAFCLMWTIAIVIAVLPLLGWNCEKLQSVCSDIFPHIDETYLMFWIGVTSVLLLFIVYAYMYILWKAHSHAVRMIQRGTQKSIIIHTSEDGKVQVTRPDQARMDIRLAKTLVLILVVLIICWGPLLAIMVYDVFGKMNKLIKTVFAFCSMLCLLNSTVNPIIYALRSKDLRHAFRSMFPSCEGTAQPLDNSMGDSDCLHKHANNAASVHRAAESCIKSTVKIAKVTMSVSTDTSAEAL
T3 sequence (P20272 whole entry): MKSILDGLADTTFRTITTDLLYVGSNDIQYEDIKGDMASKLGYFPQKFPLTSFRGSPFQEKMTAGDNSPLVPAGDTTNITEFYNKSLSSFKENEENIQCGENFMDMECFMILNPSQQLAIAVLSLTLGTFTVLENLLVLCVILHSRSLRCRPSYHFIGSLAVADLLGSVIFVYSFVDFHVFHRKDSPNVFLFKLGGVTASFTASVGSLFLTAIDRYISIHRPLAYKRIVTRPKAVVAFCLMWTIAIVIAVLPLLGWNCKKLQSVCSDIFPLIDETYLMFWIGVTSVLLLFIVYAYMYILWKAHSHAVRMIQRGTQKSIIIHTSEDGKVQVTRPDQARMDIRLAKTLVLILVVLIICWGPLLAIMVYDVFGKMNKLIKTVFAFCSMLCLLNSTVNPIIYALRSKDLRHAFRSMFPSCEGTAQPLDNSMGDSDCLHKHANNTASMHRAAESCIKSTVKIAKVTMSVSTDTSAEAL
T1 sequence (P34972 whole entry): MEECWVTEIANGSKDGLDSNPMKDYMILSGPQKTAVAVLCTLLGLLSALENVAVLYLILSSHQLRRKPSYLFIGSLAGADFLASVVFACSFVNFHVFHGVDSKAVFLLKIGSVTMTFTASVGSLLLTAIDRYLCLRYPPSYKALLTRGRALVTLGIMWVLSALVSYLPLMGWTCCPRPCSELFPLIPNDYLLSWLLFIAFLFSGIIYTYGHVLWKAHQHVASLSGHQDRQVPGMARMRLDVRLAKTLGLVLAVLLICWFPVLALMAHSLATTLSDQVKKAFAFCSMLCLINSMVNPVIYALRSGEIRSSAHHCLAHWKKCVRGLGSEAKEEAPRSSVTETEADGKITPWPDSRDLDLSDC

SMILES	activation at 0.3 µM (CB1 [7])	inhibition at 0.3 µM (CB1 [7])	melting point	IC50 (hCB1 [4])	% Displacement Protocol III (CB2 receptor)	inhibition at 0.3 µM (hCB2 [1])	IC50 (hCB2 [2]; [11])	inhibition at 10 µM (hCB2 [3])	activation at 10 µM (hCB1 [4]; [9])	inhibition at 10 µM (hCB1 [6]; [10])	also measured
O=C(NCC1CCOCC1)c1nn(-c2ccc(F)cc2F)c2c1C1CCC2C1 (stereo not shown) [Example 316, N(3)-(Tetrahydro-2H-4-pyranmethyl)-1-(2,4-difluorophenyl)-4,5,6,7-tetrahydro-1H-4,7-methano-indazole-3-carboxamide]	–	–	–	–	–	–	–	–	–	–	% Displacement Protocol IV (hCB2 [1]): 66.65%; IC50 (hCB2 [2]; h-CB2/CHO cells, read-out: hCB2 Agonism IC50): 1.2 to 4.27 nM; hCB2 Antagonism (hCB2 [3]; at 10 uM): 37.63% at; hCB1 Agonism (hCB1 [4]; [9]): 18.53% at; % Displacement Protocol II (hCB1 [5]): 13.83%; hCB1 Antagonism (hCB1 [6]; [10]): 2% at 10 uM
CC(C)(NC(=O)c1nn(-c2ccc(Cl)cc2)c2c1C1CC3CC(C1)CC2C3)c1ccccc1 [Example 119]	46%	38.9%	181 °C	38.3 nM	85.2%	–	–	–	–	–	inhibition at 10 µM (hCB1 [6]; CHO): 18.4%
C[C@H](NC(=O)c1nn(-c2ccc(Cl)cc2)c2c1C1CC3CC(C1)CC2C3)c1ccccc1 [Example 117]	4.4%	55.7%	85 to 86 °C	18.9 nM	59.8%	–	–	–	–	–	–
O=C(NCc1ccccc1)c1n[nH]c2c1C1CC3CC(CC2C3)C1 [Example 186, N(7)-Benzyl-5,6-diazatetracyclo[7.3.1.1^3,11.0^4,8]tetradeca-4(8)-6-diene-7-carboxamide]	–	–	–	–	–	59.1%	8.51 nM	21%	29.4%	0%	inhibition (CB1 [8]; rat brain membrane, [3H]SR141716A displacement, read-out: % Displacement Protocol I): 17.2%
CC(C)(NC(=O)c1nn(-c2ccc(F)cc2F)c2c1C1CCC2C1)c1ccccc1 (stereo not shown) [Example 294, N(3)-(1-Methyl-1-phenylethyl)-1-(2,4-difluorophenyl)-4,5,6,7-tetrahydro-1H-4,7-methano-indazole-3-carboxamide]	103%	9.8%	105 °C	–	–	–	–	–	–	–	reversal of neuropathic hyperalgesia (neuropathic hyperalgesia): significantly reversed neuropathic hyperalgesia; inhibition (CB1 [8]; read-out: % Displacement Protocol I, rat brain membrane, [3H]SR141716A displacement): 111%
O=C(NNc1ccccc1F)c1nn(-c2ccc(F)cc2F)c2c1C1CCC2C1 (stereo not shown) [Example 288, N(3)-[(2-Fluorophenyl)amino]-1-(2,4-difluorophenyl)-4,5,6,7-tetrahydro-1H-4,7-methano-indazole-3-carboxamide]	–	–	172 to 175 °C	–	–	60.8%	4.76 nM	17.1%	0%	55.3%	–
